Where two headings read alike, the source gives them in different places.
With “1-(4-C10-14 -alkylphenyl)-1,2-nonanedione dioximes [Dioximes D]” as the compound, how does the “log D (logarithm of nickel value extraction distribution coefficient)” value (“log D” below) (pH 1.6) read?
The value was 0.14.

What about the “log D” value (pH 2.08) of the same compound?
The value was 0.87.

For “1-(4-C10-14 -alkylphenyl)-1,2-propanedione dioximes [Dioximes C1]”, which “log D” value (pH 1.42) is on record?
The value was -0.30.

And the “log D” value (pH 1.66)?
Its value is 0.10.

And the “log D” value (pH 2)?
Its value is 0.80.

What about the “log D” value (pH 2.55) of the same compound?
Its value is 1.76.

Which “log D” value (pH 1.36) does the source give for “2-(4-C10-14 -alkylphenyl)-2-hydroxyiminoethanal oximes [Dioximes B]” here?
The value was -0.38.

And the “log D” value (pH 1.7)?
The value was 0.12.

And the “log D” value (pH 2.1)?
The value was 0.82.

What about the “log D” value (pH 2.66) of the same compound?
Its value is 1.84.

What does the source list for `CCCCCCCC(=NO)C(CCCCCCC)=NO` [Dioxime A, 8,9-hexadecanedione dioxime, reference compound]?
log D (logarithm of nickel value extraction distribution coefficient) (pH 1.58): -0.70; log D (logarithm of nickel value extraction distribution coefficient) (pH 1.89): -0.22; log D (logarithm of nickel value extraction distribution coefficient) (pH 2.04): 0.18; log D (logarithm of nickel value extraction distribution coefficient) (pH 2.7): 1.19

Source: patent US4234546A, “Liquid/liquid extraction of nickel values” (Shell Oil Company, priority 1977, dated 1980)
